Square brackets hold non-standard residues; d marks the D form. Ends that are not written are not given here. Sta = CC(C)C[C@H](N)[C@@H](O)CC(=O)O
Assays:
β-secretase [1] = biological target: T1, β-secretase (Homo sapiens, UniProt P56817); experiment: QTL/QTP assay for β-secretase activity with quencher-tether-biotin peptide substrates; format: biochemical
Method: In a 384-well plate, […] of β-secretase peptide substrate solution of appropriate concentration was mixed with a given amount of β-secretase enzyme in a total volume of […] in assay buffer. In the same plate, a control experiment was also set up where the same amount of peptide was taken in assay buffer but no enzyme was added. The experiments were usually done in triplicate sets for both sample and control. After a given time period of incubation at CRT, the fluorescent polymer in polymer buffer was added to the sample and control wells. The well plate was shaken inside the plate reader and the fluorescence intensity of the samples was measured. The difference in relative fluorescence units between sample and control wells is a measure of enzyme activity.
In the above example, the polymer can include any of the following: • A. Biotin binding protein (BBP) functionalized polystyrene latex carboxylic acid microspheres that are coated with conjugated polymer 1; • B. Solution complex of BBP and biotinylated polymer 2; • C. Microspheres as in A that are doped with a small amount of Phycoerythrin or related fluorescent protein conjugated to biotin; • D. Solution Sensor as in B doped with a small amount of Phycoerythrin or related fluorescent protein conjugated to biotin; and • E. Covalent conjugate of Phycoetythrin or another fluorescent protein and BBP. […]
The assay performance was further improved when the polymer microsphere sample A was doped with a small amount of Biotin-R-Phycoerythrin (Biotin-R-PE) conjugate. In one experiment, BSEC-1, BSEC-3 (a,b) (same peptide substrate synthesized by different vendors) and BSEC-4 were all exposed to β-secretase enzyme under identical conditions to compare their efficiencies in the assay. Polymer sample C was prepared fresh just before the start of experiment by mixing together Polymer A and Biotin-R-PE in a ratio designed to provide 5×10^6 microspheres doped with 100 fmol of Biotin-R-PE per well in a volume of 10 μL.
To 5 μL of a 300 nM solution of each peptide substrate in assay buffer in separate wells was added 10 ng of β-secretase enzyme in 5 μL of assay buffer to start the reactions. Each reaction was performed in triplicate. Controls were performed for each peptide without enzyme in quadruplicate. The samples were incubated at CRT for 60 minutes. At the end of the incubation period, the Biotin-R-PE doped polymer C was added to each well. The plate was shaken in the plate reader for 60 seconds, then probed for emission at 576 nm by exciting at 440 nm and using 475 nm cut-off filter. BSEC-1 gave RFU values of 6270±196 for control and 9645±152 for sample. BSEC-3a gave RFUs of 7656±20 for control and 15022±743 for sample while BSEC-3b gave RFUs of 6054±41 and 12265±913 for control and sample respectively. In comparison, BSEC-4 gave values of 9207±364 and 9732±319 for control and sample respectively.
The polymer solution sensor B was prepared by mixing together 56.5 nmol of Avidin (Biotin binding protein, BBP) and 848 nmol of biotinylated PPE polymer 2 in a total volume of 11.3 μL and incubating at CRT for 24 hours. The polymer and the BBP combine with each other through the biotin-avidin interaction to form stable entities. The solution sensor thus prepared was diluted appropriately with polymer buffer at the beginning of each experiment.
To 5 μL of a 400 nM solution of BSEC-1 in assay buffer in a 384 well plate was added 30 ng of β-secretase dissolved in 5 μL of assay buffer. The mixture was made in triplicate and incubated for 30 minutes at CRT. The control wells contained only peptide and no enzyme. After incubation, a 100-fold dilution of the above solution sensor was added at 20 μL to each well. The plate was shaken inside the microplate reader and the wells were probed by exciting the polymer at 440 nm and measuring emission intensity at 530 run. The control wells gave an average RFU value of 5400±200 and the sample wells containing enzyme gave RFU of 8350±200. […]

[2] = biological target: Streptavidin-B-Phycoerythrin conjugate (SAv-BPE) (Streptomyces avidinii, UniProt P22629); experiment: Superquenching of fluorescent conjugate by β-secretase peptide substrate (Stern-Volmer); details: 2.5 nM solution of the fluorescent conjugate SAv-BPE
Description: In another embodiment of the invention, the fluorescent polymer is a biological ensemble comprising phycoerythrin or phycobilisome.

β-secretase [3] = biological target: T1, β-secretase; experiment: QTL assay for inhibition of β-secretase activity by a known inhibitor; format: biochemical; details: for delta-over-control RFU: BSEC-1 substrate, 30 ng β-secretase, 15 minutes, Polymer A, without inhibitor 4468±85
Description: In another embodiment, the QTL assay is capable of detecting the inhibition of β-secretase activity in unknown samples. Whereas, in the absence of any inhibitory substance in the reaction mixture, the enzyme would cleave a large portion of the reactive tether present, in the presence of an effective inhibitor, the enzyme loses most of its activity. The QTL assay provides evidence of partial or total inhibition of enzyme activity through a lowering or complete lack of “fluorescence recovery” in such samples.
The structure of the statine-derived peptide inhibitor of β-secretase is given below:
STA-200 is a well-known inhibitor of β-secretase activity. To 2.5 μL of an 800 nM solution of BSEC-1 in assay buffer was added 30 ng of β-secretase and the volume made up to a total of 10 μL with assay buffer. In another well, 2.5 μL of 800 nM BSEC-1 solution was incubated with a pre-mixed solution of 2.5 μL of STA-200 solution and 30 ng of β-secretase so that the final volume is again 10 μL. Two control reactions were also set up in separate wells where one had only peptide in assay buffer while the other had peptide and inhibitor incubating in assay buffer. All samples were incubated at CRT for 15 minutes followed by the addition to each of 19.2 μL of Polymer A suspension (1×10^7 microspheres) in polymer buffer. The mixtures were then probed for emission at 530 nm by exciting them at 440 nm and using 475 nm cut-off filter. The mixture of peptide and enzyme alone gave a delta-over-control RFU of 4468±85. In comparison, a mixture of peptide, enzyme and 60 nM STA-200 (600 fmol) gave a delta-over-control RFU of 2746±241 while a mixture containing 250 nM STA-200 (2.5 pmol) gave a corresponding value of only 865±178.

Caspase-3 enzyme = Caspase-3 enzyme (Homo sapiens, UniProt P42574); details: Example 10, peptide substrate with Caspase-3 at CRT; control without enzyme remains unchanged
Method: To a known amount of the peptide substrate represented by SEQ ID NO:8 in assay buffer is added a sample solution of Caspase-3 enzyme in one well of a 384-well plate. In another well, the peptide substrate is taken without enzyme. The plate is incubated at CRT and the sample and control wells measured for fluorescence intensity at various time periods. […] An assay of this type is represented in FIG. 3.

[4] = Example 7: 300 nM substrate, 20 ng β-secretase, 30 minutes, SAv-BPE (Polymer E), ex 490 nm/em 576 nm
[5] = Example 7: 300 nM substrate, no enzyme, 30 minutes, SAv-BPE (Polymer E), ex 490 nm/em 576 nm
[6] = Example 3: 300 nM substrate, 10 ng β-secretase, 60 minutes at CRT, Biotin-R-PE doped polymer C, ex 440 nm/em 576 nm
[7] = Example 3: 300 nM substrate, no enzyme, 60 minutes at CRT, Biotin-R-PE doped polymer C, ex 440 nm/em 576 nm

T1 sequence (P56817 46-501): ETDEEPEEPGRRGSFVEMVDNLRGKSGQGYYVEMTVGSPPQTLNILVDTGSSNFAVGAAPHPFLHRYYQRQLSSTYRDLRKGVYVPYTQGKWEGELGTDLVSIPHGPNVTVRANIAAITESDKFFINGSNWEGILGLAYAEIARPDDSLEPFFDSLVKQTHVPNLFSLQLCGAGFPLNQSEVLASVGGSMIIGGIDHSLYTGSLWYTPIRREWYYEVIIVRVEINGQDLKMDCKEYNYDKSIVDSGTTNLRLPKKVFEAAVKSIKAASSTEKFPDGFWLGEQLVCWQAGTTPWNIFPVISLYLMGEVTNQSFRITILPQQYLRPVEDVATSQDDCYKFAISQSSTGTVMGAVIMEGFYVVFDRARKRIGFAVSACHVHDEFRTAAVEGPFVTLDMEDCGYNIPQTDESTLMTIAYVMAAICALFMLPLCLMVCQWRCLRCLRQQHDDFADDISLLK
Sequence of Caspase-3 enzyme (P42574 29-175 limits assumed, species assumed): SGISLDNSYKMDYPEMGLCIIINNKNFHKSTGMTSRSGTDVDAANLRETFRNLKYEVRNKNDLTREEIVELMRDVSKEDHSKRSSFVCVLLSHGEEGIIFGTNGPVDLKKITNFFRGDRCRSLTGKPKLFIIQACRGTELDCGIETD
Sequence of Caspase-3 enzyme (P42574 176-277 limits assumed, species assumed): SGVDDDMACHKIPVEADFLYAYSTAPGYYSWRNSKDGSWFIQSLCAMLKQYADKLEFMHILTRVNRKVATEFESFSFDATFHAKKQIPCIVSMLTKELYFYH
Sequence of Streptavidin-B-Phycoerythrin conjugate (SAv-BPE) (P22629 25-183): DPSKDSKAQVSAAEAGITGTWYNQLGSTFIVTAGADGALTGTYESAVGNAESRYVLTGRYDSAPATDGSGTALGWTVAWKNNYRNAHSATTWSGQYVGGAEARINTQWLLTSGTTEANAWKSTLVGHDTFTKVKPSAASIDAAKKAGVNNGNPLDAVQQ
Sequence of Streptavidin-B-Phycoerythrin conjugate (SAv-BPE) (P11392 whole entry partner): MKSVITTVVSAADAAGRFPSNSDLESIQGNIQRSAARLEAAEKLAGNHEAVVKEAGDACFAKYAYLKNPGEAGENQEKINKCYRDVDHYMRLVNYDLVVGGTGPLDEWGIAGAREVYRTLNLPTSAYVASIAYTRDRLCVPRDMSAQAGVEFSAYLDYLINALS
Sequence of Streptavidin-B-Phycoerythrin conjugate (SAv-BPE) (P11393 whole entry partner): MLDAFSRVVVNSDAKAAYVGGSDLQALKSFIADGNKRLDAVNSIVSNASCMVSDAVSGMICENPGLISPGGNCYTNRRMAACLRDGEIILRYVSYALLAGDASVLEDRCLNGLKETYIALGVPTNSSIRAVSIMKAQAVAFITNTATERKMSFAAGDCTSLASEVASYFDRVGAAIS

(AZO)-TEEISEVNLDAEFK-(Nε-Biotin) [BSEC-3]
RFU of sample (β-secretase [1]; Example 2: 400 nM substrate, 60 ng β-secretase, ten minutes at CRT, polymer A, ex 440 nm/em 530 nm): 10996±424 RFU | RFU of control (β-secretase [1]; Example 2: 400 nM substrate, no enzyme, ten minutes at CRT, polymer A, ex 440 nm/em 530 nm): 8111±707 RFU | RFU of sample (β-secretase [1]; Example 3: 300 nM substrate, 10 ng β-secretase, 60 minutes at CRT, Biotin-R-PE doped polymer C, ex 440 nm/em 576 nm, listed as BSEC-3a): 15022±743 RFU | RFU of sample (β-secretase [1]; Example 3: 300 nM substrate, 10 ng β-secretase, 60 minutes at CRT, Biotin-R-PE doped polymer C, ex 440 nm/em 576 nm, listed as BSEC-3b): 12265±913 RFU | RFU of control (β-secretase [1]; Example 3: 300 nM substrate, no enzyme, 60 minutes at CRT, Biotin-R-PE doped polymer C, ex 440 nm/em 576 nm, listed as BSEC-3a): 7656±20 RFU | RFU of control (β-secretase [1]; Example 3: 300 nM substrate, no enzyme, 60 minutes at CRT, Biotin-R-PE doped polymer C, ex 440 nm/em 576 nm, listed as BSEC-3b): 6054±41 RFU | average RFU of sample wells (β-secretase [1]; Example 6: 300 nM substrate, 30 ng β-secretase, 30 minutes at CRT, doped solution sensor D, ex 440 nm/em 576 nm): 14500±200 RFU | average RFU of control wells (β-secretase [1]; Example 6: 300 nM substrate, no enzyme, 30 minutes at CRT, doped solution sensor D, ex 440 nm/em 576 nm): 5200±100 RFU | average RFU of enzyme wells (β-secretase [1]; [4]): 18032±228 RFU | average RFU of control wells (β-secretase [1]; [5]): 11639±335 RFU

(AZO)-TKKISEVNLDAEFRK-(Nε-Biotin) [BSEC-4]
RFU of sample (β-secretase [1]; [6]): 9732±319 RFU | RFU of control (β-secretase [1]; [7]): 9207±364 RFU

(QSY-7)-TEEISEVNLDAEFK-(Nε-Biotin) [BSEC-1]
Stem-Volmer quenching constant [2]: ~1e+08 M⁻¹ | relative fluorescence units (RFU) of sample (β-secretase [1]; Example 1: 400 nM substrate, 20 ng β-secretase, 30 min at CRT, polymer A, ex 420 nm/em 530 nm): 9045±109 RFU | relative fluorescence units (RFU) of control (β-secretase [1]; Example 1: 400 nM substrate, no enzyme, 30 min at CRT, polymer A, ex 420 nm/em 530 nm): 5529±286 RFU | RFU of sample (β-secretase [1]; [6]): 9645±152 RFU | RFU of control (β-secretase [1]; [7]): 6270±196 RFU | RFU of sample wells containing enzyme (β-secretase [1]; Example 5: 400 nM substrate, 30 ng β-secretase, 30 minutes at CRT, solution sensor polymer B, ex 440 nm/em 530 nm): 8350±200 RFU | average RFU of control wells (β-secretase [1]; Example 5: 400 nM substrate, no enzyme, 30 minutes at CRT, solution sensor polymer B, ex 440 nm/em 530 nm): 5400±200 RFU | average RFU of enzyme wells (β-secretase [1]; [4]): 11828±556 RFU | average RFU of control wells (β-secretase [1]; [5]): 7671±286 RFU | delta-over-control RFU, peptide and enzyme alone (β-secretase [1]; Example 8: 2.5 μL of 800 nM substrate, 30 ng β-secretase, no inhibitor, 15 minutes at CRT, Polymer A, ex 440 nm/em 530 nm): 4468±85 RFU

KTEISEVN-(Sta)-VAEF-OH (KTEISEVN[Sta]VAEF-OH; N-terminus assumed; SMILES CC[C@H](C)[C@H](NC(=O)[C@H](CCC(=O)O)NC(=O)[C@@H](NC(=O)[C@@H](N)CCCCN)[C@@H](C)O)C(=O)N[C@@H](CO)C(=O)N[C@@H](CCC(=O)O)C(=O)N[C@H](C(=O)N[C@@H](CC(N)=O)C(=O)N[C@@H](CC(C)C)[C@@H](O)CC(=O)N[C@H](C(=O)N[C@@H](C)C(=O)N[C@@H](CCC(=O)O)C(=O)N[C@@H](Cc1ccccc1)C(=O)O)C(C)C)C(C)C) [STA-200]
delta-over-control RFU (β-secretase [3]; 60 nM STA-200 (600 fmol)): 2746±241 RFU | delta-over-control RFU (β-secretase [3]; 250 nM STA-200 (2.5 pmol)): 865±178 RFU | IC50 value (β-secretase [3]; sample incubated for fifteen minutes): in the range of nanomolar concentrations

D-E-V-D-Cyanine [SEQ ID NO:8]
fluorescence intensity of sample with increasing time (Caspase-3 enzyme): increase in fluorescence

Source: US20050014160A1, “Assays for protease enzyme activity” (priority 2003, published 2005)
